Values quoted from earlier work in patent US20260114463A1, “COATING LIQUID COMPOSITION, PRODUCTION METHOD THEREFOR, AND LIQUID CONTAINING LOW-TEMPERATURE DAMAGE INHIBITOR” (Mitsubishi Chemical Corporation, priority 2023, published 2026).

Conditions: raw material data

Q: For Glycerin monocaprylate [Example M-100], which HLB is on record?
A: 7.0
